# In PMC3690700 (Journal of nuclear medicine : official publication, Society …, 2008):
# “And” between values parts separate entries of the source, which are not always exact repeats. Identical values can stand only once. Marks after values point to notes of the source that are not given here.
# Experiments:
# [1] = Metabolism of; details: tariquidar 15 mg/kg i.v.
# [2] = test system: P-gp; details: read-out: half-maximum inhibition constant (IC50); substrate transport by P-gp in vitro; cited from earlier work
# [3] = Single i.v. dose of tariquidar in humans; type: in vivo; details: single i.v. dose of 2 mg/kg, from Cmax
# [4] = test system: P-gp at the BBB
# [5] = humans, ref personal communication Dr. U. Elben, Aväant Pharmaceuticals; cited from earlier work
# [6] = humans, single i.v. dose of 2 mg/kg, cited from earlier work
# [7] = test system: P-gp; details: mice, P-gp substrate loperamide, conventional biodistribution; cited from earlier work
# [8] = test system: P-gp at the BBB; assay: in vivo; details: Wistar Unilever, rat
# [9] = 2T4K model, tariquidar 15 mg/kg i.v. 2 h before PET scan (n=5)
# [10] = 2T4K model, with vs without tariquidar 15 mg/kg i.v.
smiles,measurement,setting,value
COc1cc2c(cc1OC)CN(CCc1ccc(NC(=O)c3cc(OC)c(OC)cc3NC(=O)c3cnc4ccccc4c3)cc1)CC2 [tariquidar],Effect of tariquidar administration on metabolism of (R)-11C-verapamil,[1],essentially left unaffected
same,IC50,[2],40 nM and ~40 nM
same,unbound concentration,[3],about 0.012 μM
same,"Increase of K1 after tariquidar, 1T2K model","[4]; 1T2K model, tariquidar treatment",+632%
same,DV of (R)-11C-verapamil with tariquidar,[4]; [9],3.68±0.81 mL·mL^−1 and 3.68±0.81 (3) mL·mL^−1
same,K1 of (R)-11C-verapamil with tariquidar,[4]; [9],0.58±0.20 (9) mL·mL^−1·min^−1
same,k2 of (R)-11C-verapamil with tariquidar,[4]; [9],0.27±0.07 (43) min^−1
same,k3 of (R)-11C-verapamil with tariquidar,[4]; [9],0.37±0.17 (66) min^−1
same,k4 of (R)-11C-verapamil with tariquidar,[4]; [9],0.66±0.49 (55) min^−1
same,Relative change of k2,[4]; [10],−23%
same,Relative change of k3,[4]; [10],+27%
same,Relative change of k4,[4]; [10],−9%
same,DV (Logan) of (R)-11C-verapamil with tariquidar,"[4]; Logan analysis, tariquidar 15 mg/kg i.v. 2 h before PET scan (n=5)",3.53±0.79 (1) mL·mL^−1
same,Relative change of DV (Logan),"[4]; Logan analysis, with vs without tariquidar 15 mg/kg i.v.","+1,007^† %"
same,Emax,"[4]; maximum effect (DV) of dose-response fit, estimate±asymptotic standard error",4.5±3.8
same,Time of peak uptake of activity in brain after tariquidar injection,"[4]; scan 2, 0-90 min after tariquidar 15 mg/kg i.v.",32 ± 5 min
same,Brain uptake of activity after tariquidar vs baseline PET scans,[4]; tariquidar 15 mg/kg,about 12 fold
same,Increase of DV of (R)-11C-verapamil after tariquidar vs baseline,"[4]; tariquidar 15 mg/kg i.v., rat brain",12 fold
same,bound to plasma proteins,[5],99.5%
same,Tolerability,[6],well tolerated
same,Cmax,[6]; read-out: maximum plasma concentrations (Cmax),~2300 nM
same,ED50,[7],5.6 mg/kg
same,ED50 at 2 h,[8],8.4 ± 9.5 mg/kg
